According to article PMC10487843, “Evaluation of Anticancer and Anti-Inflammatory Activities of Some Synthetic Rearranged Abietanes” (International Journal of Molecular Sciences, 2023):
Values after ≈ are worked out from the molar mass of the structure shown.

Columns and labels:
HT29 cells = experiment: Annexin V-FITC/PI flow cytometry apoptosis analysis; assay type: cell-based, human; conditions: HT29, 72 h; for total apoptosis, % of cell population: control 9%
Excerpt: To further investigate the potential mechanisms underlying the cytotoxic and cytostatic effects of compounds 5 and 13 on HT29 cells, Annexin V–FITC/PI double staining along with […] cell sorter (FACS) cytometry analysis was employed for determinate apoptosis induction. This assay allowed for the distinction of different cell populations, including normal cells (Annexin V− PI−), early apoptotic cells (Annexin V+ PI−), late apoptotic cells (Annexin V+ PI+), and necrotic cells (Annexin V− PI+).
These assays on the HT29 cell line were conducted 72 h after treatment with the selected rearranged abietanes at their corresponding IC50 and IC80 concentrations.
Flow cytometry was used to detect annexin V-FICT and PI double staining, to quantify the pro-apoptotic impact of compounds 5 and 13. Apoptosis was assessed through flow cytometry using a FACScan flow cytometer (Coulter Corporation, Hialeah, FL, USA). In this assay, 5 × 10^4 HT29 cells were plated in 24-well plates with 1.5 mL of medium and incubated for 24 h. The cells were then treated with the selected compounds in triplicate for 24, 48, and 72 h at their corresponding IC50 and IC80 concentrations. The cells were harvested and resuspended in a binding buffer (10 mM HEPES/NaOH with pH 7.4, 140 mM NaCl, and 2.5 mM CaCl2). Subsequently, Annexin V-FITC conjugate (1 µg/mL) was added and incubated for 15 min in the dark at room temperature. The cells were stained with 5 µL of 1 mg/mL PI solution before analysis. Approximately 10 × 10^3 cells were analyzed in each experiment; the experiments were performed twice, each with three replications per assay.

[1] = RAW 264.7 cell viability (MTT); assay type: cell-based, murine; conditions: mouse, RAW 264.7 monocyte/macrophage cells; RAW 264.7, MTT, 0–100 μg/mL; read-out: IC50 (cytotoxicity)
Procedure: To evaluate the cytotoxic effects of the synthesized abietanes (5, 7, 13, 17, and 19) on RAW 264.7 monocyte/macrophage murine cells and to establish sub-cytotoxic concentrations for anti-inflammatory testing, we conducted cell viability assays using the MTT method. Each compound was tested at increasing concentration levels (0–100 μg/mL), and the IC50 values were determined by interpolation in the sigmoidal cytotoxicity curves (Figure 8). […] Additionally, sub-cytotoxic concentrations corresponding to ¾ IC50, ½ IC50, and ¼ IC50 were determined and selected for subsequent anti-inflammatory assays, ensuring that the observed effects were specifically attributed to the anti-inflammatory properties of the compounds rather than cytotoxicity. The human colorectal adenocarcinoma cell line HT29 (ECACC no. 9172201; ATCC no. HTB-38), the human hepatocarcinoma cell line HepG2 (ECACC no. 85011430), the mouse melanoma cells B16–F10 (ATCC no. CRL-6475), and the murine monocyte/macrophage like RAW 264.7 cell line (ATCC no, TIB-71) were obtained from the cell bank of the University of Granada, Spain. The tumor cell lines were cultured in DMEM (Dulbecco’s modified Eagle’s medium) supplemented with 2 mM glutamine, 10% heat-inactivated FCS (fetal calf serum), and 50 μg/mL of gentamicin (for all cancer cell lines). The RAW 264.7 cell line was cultured in RPMI1640 medium, supplemented with 2 mM glutamine, 10% heat-inactivated FCS, and 50 μg/mL of gentamicin. All cell lines were incubated at 37 °C, in an atmosphere of 5% CO2 and 95% humidity. The culture media were changed every 48 h, and the confluent cultures were separated with a trypsin solution (0.25% EDTA). In all experiments, monolayer cells were grown to 80–90% confluence in sterile cell culture flasks. The effects of the compounds on the cell viability were established using the MTT method (Sigma, St. Louis, MO, USA). The cytotoxicity of the compounds was assessed by measuring the absorbance of MTT dye staining of metabolically competent cells. The cells were cultivated in 96-well plates at 6.0 × 10^3 cells/mL for the HT29 and RAW 264.7 cell lines, at 5.0 × 10^3 cells/mL for B16–F10 cells, and 15.0 × 10^3 cells/mL for the HepG2 cell line, with a final volume of 200 μL per well being incubated with the different products (0–100 μg/mL). After 72 h, 100 μL of MTT solution (0.5 mg/mL) in 50% of PBS and 50% of the medium was added to each well. Following incubation for 1.5 h, formazan was resuspended in 100 μL of DMSO, and each concentration was tested in triplicate. The cell viability relative to the untreated control cells was determined by measuring the absorbance at 570 nm using an ELISA plate reader (Tecan Sunrise MR20–301, TECAN, Grödig, Austria).

| SMILES | early apoptosis, % of cell population (HT29 cells; IC50 concentration) | late apoptosis, % of cell population (HT29 cells; IC50 concentration) | percentage of necrotic cells (HT29 cells; IC50 concentration, control 3%) | total apoptosis, % of cell population (HT29 cells; IC50 concentration) | early apoptosis, % of cell population (HT29 cells; IC80 concentration) | late apoptosis, % of cell population (HT29 cells; IC80 concentration) | total apoptosis, % of cell population (HT29 cells; IC80 concentration) | IC50 at 72 h [1] |
| --- | --- | --- | --- | --- | --- | --- | --- | --- |
| CC(C)C1=CC2=C(C(=O)C1=O)C1=CC(=O)CC(C)(C)[C@@]1(C)C=C2 [Compound 5, Pygmaeocin B] | 5% | 17% | 15% | 22% | 12% | 23% | 35% | 0.14 ± 0.09 µg/mL (≈ 0.451 µM) |
| CC(C)C1=CC2=C(C(=O)C1=O)[C@@]1(C)CCCC(C)(C)[C@@H]1CC2 [Compound 13] | 6% | 12% |  | 18% | 7% | 14% | 21% | 8.18 ± 1.86 µg/mL (≈ 27.2 µM) |
